{"source": "paper PMC2764525", "about": "(Biochemistry, 2009)", "key": {"nikD Glu101Gln [1]": {"molecular_target": "T1, nikD Glu101Gln (Streptomyces tendae, UniProt Q9X9P9, E101Q)", "experiment": "biochemical", "type": "binding"}, "wild-type nikD [2]": {"molecular_target": "wild-type nikD", "conditions": "spectral titration, 100 mM potassium phosphate buffer, pH 8.0, 25 °C; cited from earlier work"}, "nikD Asp276Asn [3]": {"molecular_target": "T2, nikD Asp276Asn (Streptomyces tendae, UniProt Q9X9P9, D276N)", "experiment": "biochemical", "type": "binding"}, "[4]": {"conditions": "ionization at the N(3)H position in free FAD; cited from earlier work"}, "wild-type nikD [5]": {"test_system": "wild-type nikD", "conditions": "pH 8.0, 25 °C, cited from earlier work"}, "wild-type nikD [6]": {"test_system": "wild-type nikD", "conditions": "saturating P2C and oxygen, pH 8.0, 25 °C; cited from earlier work"}, "nikD Asp276Asn [7]": {"molecular_target": "T2, nikD Asp276Asn", "experiment": "Anaerobic reductive half-reaction with P2C", "type": "biochemical"}, "nikD Glu101Gln [8]": {"molecular_target": "T1, nikD Glu101Gln", "experiment": "Steady-state turnover with P2C and oxygen", "type": "biochemical"}, "nikD Glu101Gln [9]": {"molecular_target": "T1, nikD Glu101Gln", "experiment": "Anaerobic reductive half-reaction with P2C", "type": "biochemical"}, "nikD Asp276Asn [10]": {"molecular_target": "T2, nikD Asp276Asn", "experiment": "Steady-state turnover with P2C and oxygen", "type": "biochemical"}, "nikD Glu101Gln [11]": {"molecular_target": "T1, nikD Glu101Gln", "conditions": "pH 8"}, "nikD Glu101Gln [12]": {"molecular_target": "T1, nikD Glu101Gln", "experiment": "biochemical"}, "wild-type nikD [13]": {"test_system": "wild-type nikD", "conditions": "cited from earlier work"}, "[14]": {"conditions": "apparent second-order rate constant from stopped-flow data, pH 8.0, 25 °C"}, "[15]": {"conditions": "limiting rate of fast phase at saturating P2C, pH 8.0, 25 °C"}, "[16]": {"conditions": "saturating concentrations of P2C and oxygen"}, "[17]": {"conditions": "very fast phase preceding fast phase, pH 8.0, 25 °C"}, "[18]": {"conditions": "one-step binding, pH 8.0, 25 °C"}}, "note": "Several values for one entry are separate records, joined by “and”; a condition that tells them apart may be missing. Equal values may be shown once. Read-outs that look alike come from different tables or passages of the source.", "data": [{"smiles": "O=C(O)C1=CCCCC1", "note": "[1-cyclohexenoate]", "values": [{"measurement": "Kd", "setting": "nikD Glu101Gln [1]", "result": "0.9 ± 0.1", "unit": "µM"}, {"measurement": "Kd", "setting": "wild-type nikD [2]", "result": "12.8 ± 0.9", "unit": "µM"}, {"measurement": "Kd", "setting": "nikD Asp276Asn [3]", "result": "6.5 ± 0.9", "unit": "µM"}]}, {"smiles": "Cc1cc2nc3c(=O)[nH]c(=O)nc-3n(C[C@H](O)[C@H](O)[C@H](O)COP(=O)(O)OP(=O)(O)OC[C@H]3O[C@@H](n4cnc5c(N)ncnc54)[C@H](O)[C@@H]3O)c2cc1C", "note": "[FAD, flavin adenine dinucleotide]", "values": [{"measurement": "pKa", "setting": "[4]", "result": 10.4}]}, {"smiles": "O=C(O)C1=NCCCC1", "note": "[P2C, piperideine-2-carboxylate]", "values": [{"measurement": "klim", "setting": "wild-type nikD [5]; limiting rate of fast phase at saturating P2C", "result": "53 ± 1", "unit": "s⁻¹"}, {"measurement": "klim/Kd app", "setting": "wild-type nikD [5]", "result": "2.0 ± 0.2 × 10^5 M^-1 s^-1"}, {"measurement": "Kd", "setting": "wild-type nikD [5]; read-out: Kd app, hyperbolic fit of fast phase", "result": "260 ± 20", "unit": "µM"}, {"measurement": "kslow", "setting": "wild-type nikD [5]; slow phase, independent of P2C concentration", "result": "2.7 ± 0.1", "unit": "s⁻¹"}, {"measurement": "kcat", "setting": "wild-type nikD [6]", "result": "2.3 ± 0.2", "unit": "s⁻¹"}, {"measurement": "Kd", "setting": "nikD Asp276Asn [7]", "result": "110 ± 10", "unit": "µM"}, {"measurement": "klim/Kd app", "setting": "nikD Asp276Asn [7]; [14]", "result": "1.01 ± 0.01 × 10^5 M^-1 s^-1 and 1.01 ± 0.09 × 10^5 M^-1 s^-1"}, {"measurement": "klim", "setting": "nikD Asp276Asn [7]; [15]", "result": "11.1 ± 0.2", "unit": "s⁻¹"}, {"measurement": "klim, fold faster than observed turnover rate (kcat)", "setting": "nikD Asp276Asn [7]; saturating P2C", "result": "about 10 fold"}, {"measurement": "klim, fold slower than limiting rate with wild-type nikD", "setting": "nikD Asp276Asn [7]; saturating P2C", "result": "about 5 fold"}, {"measurement": "kslow", "setting": "nikD Asp276Asn [7]; slow phase, independent of P2C concentration, pH 8.0, 25 °C", "result": "3.0 ± 0.3", "unit": "s⁻¹"}, {"measurement": "kcat", "setting": "nikD Glu101Gln [8]; saturating P2C and oxygen, ping-pong mechanism fit, pH 8.0, 25 °C", "result": "0.50 ± 0.01", "unit": "s⁻¹"}, {"measurement": "turnover rate, fold slower than wild-type nikD", "setting": "nikD Glu101Gln [8]; [16]", "result": "about 5 fold"}, {"measurement": "Kd", "setting": "nikD Glu101Gln [9]", "result": "1400 ± 200", "unit": "µM"}, {"measurement": "klim/Kd app", "setting": "nikD Glu101Gln [9]; [14]", "result": "9 ± 1 × 10^3 M^-1 s^-1"}, {"measurement": "klim", "setting": "nikD Glu101Gln [9]; [15]", "result": "13.9 ± 0.9", "unit": "s⁻¹"}, {"measurement": "klim, fold faster than observed turnover rate (kcat)", "setting": "nikD Glu101Gln [9]; saturating P2C", "result": "about 30 fold"}, {"measurement": "klim, fold slower than limiting rate with wild-type nikD", "setting": "nikD Glu101Gln [9]; saturating P2C", "result": "about 4 fold"}, {"measurement": "kvery fast, Y-intercept of linear dependence on P2C concentration", "setting": "nikD Glu101Gln [9]; [17]", "result": "10.1 ± 0.9", "unit": "s⁻¹"}, {"measurement": "kvery fast, slope of linear dependence on P2C concentration", "setting": "nikD Glu101Gln [9]; [17]", "result": "8.8 ± 0.2 × 10^3 M^-1 s^-1"}, {"measurement": "Ki", "setting": "nikD Asp276Asn [10]", "result": 8, "unit": "µM"}, {"measurement": "kcat", "setting": "nikD Asp276Asn [10]; saturating P2C and oxygen, sequential mechanism fit, pH 8.0, 25 °C", "result": "1.22 ± 0.04", "unit": "s⁻¹"}, {"measurement": "turnover rate, fold slower than wild-type nikD", "setting": "nikD Asp276Asn [10]; [16]", "result": "about 2 fold"}]}, {"smiles": "C[Se]CC(=O)O", "note": "[methylselenoacetate]", "values": [{"measurement": "Kd", "setting": "nikD Glu101Gln [1]", "result": "112 ± 3", "unit": "µM"}, {"measurement": "Kd", "setting": "wild-type nikD [2]", "result": "1070 ± 40", "unit": "µM"}, {"measurement": "Kd", "setting": "nikD Asp276Asn [3]", "result": "1000 ± 30", "unit": "µM"}]}, {"smiles": "O=C(O)c1ccccn1", "note": "[picolinate]", "values": [{"measurement": "k3", "setting": "nikD Glu101Gln [11]", "result": "192 ± 9", "unit": "s⁻¹"}, {"measurement": "k4", "setting": "nikD Glu101Gln [11]", "result": "27 ± 1", "unit": "s⁻¹"}, {"measurement": "Kd", "setting": "nikD Glu101Gln [12]", "result": "180 ± 30", "unit": "µM"}, {"measurement": "Kd", "setting": "nikD Glu101Gln [1]", "result": "151 ± 2", "unit": "µM"}, {"measurement": "Kd", "setting": "wild-type nikD [2]", "result": "290 ± 40", "unit": "µM"}, {"measurement": "Kd", "setting": "nikD Asp276Asn [3]", "result": "420 ± 20", "unit": "µM"}, {"measurement": "k1", "setting": "wild-type nikD [13]; [18]", "result": "2.83 ± 0.04 × 10^4 M^-1 s^-1"}, {"measurement": "k2", "setting": "wild-type nikD [13]; [18]", "result": "8.0 ± 0.7", "unit": "s⁻¹"}, {"measurement": "Kd", "setting": "wild-type nikD [13]; read-out: Kd macroscopic (calc), calculated, equals k2/k1, pH 8.0, 25 °C", "result": "280 ± 30", "unit": "µM"}]}]}
